Data published in patent publication US8383673B2, “Nitridoosmium(VI) complexes for treatment of cancer” (priority 2010, dated 2013).
Like-named read-outs stand apart in the source and are kept apart here.

Key:
[1] = test system: human cervix epitheloid carcinoma (HeLa) cell line; experiment: Microculture Tetrazolium Test (MTT assay), cytotoxicity in HeLa cell line; type: cell-based
Experimental: The cytotoxicity of the complexes was tested by using human cervix epitheloid carcinoma (HeLa) cell line. In this respect the following method was selected.
The antiproliferation activity of these nitridoosmium compounds was examined on human tumor cell lines in the Microculture Tetrazolium Test (MTT assay) with continuous active substance exposition (24 h for compound 1-7; 48 h for compound 8-11). In this regard, adherent monolayer cultures of HeLa cell line were used.
Culture conditions: The cells were kept in 10 cm^2 culture plates at 37° C. and moist atmosphere (5% CO2). Dulbecco's Modified Eagle's Medium (DMEM) was used as culture medium, with 1% antibiotic-antimycotic and 10% fetal bovine serum.
Test execution: Cell were harvested from culture plates by trypsinization and seeded in 100 μL aliquots in complete culture medium into 96-well microculture plates. Cell density of about 4800 cells/well was chosen in order to ensure exponential growth throughout drug exposure. Cells were allowed to settle for 24 h, followed by the addition of dilutions of the test compounds, which were dissolved in DMSO, in 100 μL/well complete culture medium (<1% DMSO) and incubation for 24 h (compound 1-7) or 48 h (compound 8-11). At the end of exposure, drug solutions were replaced by 100 μL/well DMEM medium with 10% MTT solution in phosphate-buffered saline (5 mg/ml PBS). After incubation for 1 h at 37° C., medium was removed, and the reduced formazan product formed by the metabolic activity of vital cells was dissolved in 100 μL DMSO per well. Optical densities at a wavelength of 570 nm were measured with a microplate reader. The quantity of vital cells was expressed in terms of T/C values by comparison to untreated control microcultures, and IC50 values were calculated from concentration-effect curves by logarithmic interpolation. Evaluation is based on means from at least three independent experiments, each comprising four replicates per concentration level.

HeLa cells = experiment: MTT assay of Compound 8 with and without cisplatin; type: cell-based, human; conditions: for IC50: MTT, 3 days incubation
Experimental: Compound 8 was tested in the MTT assay to determine its effects with and without cisplatin (see FIG. 1). Assays of cytotoxicity were conducted in 96-well, flat-bottomed microtitre plates. The supplemented culture medium (MEM, 40 μL) with HeLa cells (1×10^5 cells per mL) was added to the wells. Compound 8 was dissolved in the culture medium with 0.5% DMSO with concentrations ranged from 5 μM to 100 μM, and aliquots (10 μL) of the solutions were subsequently added to a set of wells containing the HeLa cells. To examine the synergistic effect of cisplatin, cisplatin was dissolved in the culture medium in order to prepare solutions with concentrations of 0, 0.2, 2 and 6 μM. Aliquots of the cisplatin solutions (50 μL) were added to different sets of the wells containing compound 8 and the HeLa cells. Cells for control experiments were treated with supplemented media with 0.5% DMSO (100 μL). The microtitre plates were incubated at 37° C. in a humidified atmosphere of 5% CO2/95% air for a further 3 days. Assessment of cytotoxicity was carried out by using a modified method of the Mosmann-based 3-(4,5-dimethylthiazol-2-yl)-2,5-diphenyltetrazolium bromide (MTT) assay [T. Mosmann, J. Immunol. Methods 1983, 65, 55]. At the end of the incubation period, MTT solution (10 μL, Cell Proliferation Kit I, Roche) was added into each well and the cultures were incubated further for 4 h at 37° C. in a humidified atmosphere of 5% CO2/95% air. A solubilizing solution (100 μL) was added into wells to lyse the cells and to solubilize the formed formazan complex. The microtitre plates were maintained in a dark, humidified chamber overnight. The formation of formazan was measured by using a microtitre plate reader at 550 nm and the percentages of cell survival were determined. The cytotoxicity was evaluated based on the percentage cell survival in a dose-dependent manner relative to the control.

[2] = test system: human non-small cell lung cancer cells NCI-H460; conditions: for tumor weight: twice a week, eight injections, end of study (30 days), Mean ± SD; for inhibition rate (%): tumor growth inhibition by tumor weight vs negative group
Experimental: In vitro cultured human non-small cell lung cancer cells NCI-H460 (from ATCC) were inoculated in nude mice (SPF grade BALB/c-nu male nude mice were purchased from Medical Laboratory Animal Center, Guangdong Province) subcutaneously. The in vivo anti-cancer properties of Os1 (Compound 8) and Os2 (Compound 1) given by intraperitoneal injection were examined by measuring the tumor nodule size of the nude mice.
Each nude mouse was inoculated subcutaneously with 0.2 mL of 7.5×10^6 cells/mL of NCI-H460 cells suspended in culture medium.
Experimental Procedure: 16-18 g male BALB/c-nu nude mice were inoculated subcutaneously 0.2 mL of the NCI-H460 cell suspension (1.5×10^6 cells/rats). The day after inoculation (administration day 1), the nude mice were randomly divided into eight groups and were grouped as follows:
1) positive group (cyclophosphamide 30.0 mg/kg, intraperitoneal injection)
2) negative group (20% PET, intraperitoneal injection)
3) Os1 groups (three treatment groups: 10, 3, 1 mg/kg, intraperitoneal injection)
4) Os2 groups (three treatment groups: 10, 3, 1 mg/kg, intraperitoneal injection)
Mice in each group were received treatment twice a week, with a total number of eight injections. Tumor sizes were measured every 3 days. The treated mice were sacrificed at the end of the study period (30 days) with anatomical separation of tumor nodules. The tumors were weighed and photographed.
The inhibition rate of tumor growth was determined using the following formula: Tumor growth inhibition rate (%)=(1−mean tumor weight of the treatment/mean tumor weight of the negative group)×100%. Tumor volume=longest dimension (mm)×[shortest dimension of the tumor (mm)]^2/2. All measurements were expressed in Mean±SD, using SPSS 10.0 for statistical analysis.

## [Os^VI(N)(5-MeOsalpa)(OH2)Cl] [Compound 5]
[1]; 24 h exposure (compound 1-7)
  IC50: < 25 µM

## N.N.[Cl][Pt][Cl] [Cisplatin, cisplatin, reference compound]
HeLa cells; single agent
  IC50: 7.5 µM

## O=P1(N(CCCl)CCCl)NCCCO1 (centres unmarked) [positive control, cyclophosphamide, reference compound]
[2]; 30 mg/kg i.p., day 14
  Tumor volume/mm^3: 168.16 mm^3
[2]; 30 mg/kg i.p., day 18
  Tumor volume/mm^3: 227.03 mm^3
[2]; 30 mg/kg i.p., day 22
  Tumor volume/mm^3: 318.64 mm^3
[2]; 30 mg/kg i.p., day 26
  Tumor volume/mm^3: 378.31 mm^3
[2]; 30 mg/kg i.p., day 30
  Tumor volume/mm^3: 778.84 mm^3
[2]; 30.0 mg/kg i.p.
  tumor weight: 0.6095 ± 0.5477 g
  inhibition rate (%): 74.04%

## [Os^VI(N)(salpa)(OH2)Cl] [Compound 1]
[1]; 24 h exposure (compound 1-7)
  IC50: < 25 µM
[2]; 1 mg/kg i.p., day 14
  Tumor volume/mm^3: 380.21 mm^3
[2]; 1 mg/kg i.p., day 18
  Tumor volume/mm^3: 710.06 mm^3
[2]; 1 mg/kg i.p., day 22
  Tumor volume/mm^3: 726.71 mm^3
[2]; 1 mg/kg i.p., day 26
  Tumor volume/mm^3: 1365.02 mm^3
[2]; 1 mg/kg i.p., day 30
  Tumor volume/mm^3: 1110.38 mm^3
[2]; 1 mg/kg i.p.
  tumor weight: 1.2164 ± 0.6547 g
  inhibition rate (%): 48.20%
[2]; 3 mg/kg i.p., day 14
  Tumor volume/mm^3: 420.80 mm^3
[2]; 3 mg/kg i.p., day 18
  Tumor volume/mm^3: 500.45 mm^3
[2]; 3 mg/kg i.p., day 22
  Tumor volume/mm^3: 1011.29 mm^3
[2]; 3 mg/kg i.p., day 26
  Tumor volume/mm^3: 1032.38 mm^3
[2]; 3 mg/kg i.p., day 30
  Tumor volume/mm^3: 1390.62 mm^3
[2]; 3 mg/kg i.p.
  tumor weight: 1.3542 ± 0.5337 g
  inhibition rate (%): 42.33%
[2]; 10 mg/kg i.p., day 14
  Tumor volume/mm^3: 507.33 mm^3
[2]; 10 mg/kg i.p., day 18
  Tumor volume/mm^3: 671.87 mm^3
[2]; 10 mg/kg i.p., day 22
  Tumor volume/mm^3: 1342.17 mm^3
[2]; 10 mg/kg i.p., day 26
  Tumor volume/mm^3: 1601.47 mm^3
[2]; 10 mg/kg i.p., day 30
  Tumor volume/mm^3: 2188.17 mm^3
[2]; 10 mg/kg i.p.
  tumor weight: 2.1535 ± 1.4884 g
  inhibition rate (%): 8.29%
[2]; high-dose group (10 mg/kg i.p.)
  deaths of treated mice: one treated mouse died at day 7 and one died at day 19
[2]; middle dose group (3 mg/kg i.p.)
  deaths of treated mice: one treated mouse died at day 23 and one died at day 26

## Cc1ccn[nH]1.Cc1ccn[nH]1.[N]#[Os]([Cl])([Cl])[Cl] [Compound 11, trans-[Os^VI(N)(5-methylpyrazole)2Cl3]]
[1]; 48 h exposure (compound 8-11)
  IC50: < 100 µM

## [Os^VI(N)(5-NO2salpa)(OH2)Cl] [Compound 6]
[1]; 24 h exposure (compound 1-7)
  IC50: < 100 µM

## Cc1cc(C)[nH]n1.Cc1cc(C)[nH]n1.[N]#[Os]([Cl])([Cl])[Cl] [Compound 10, trans-[Os^VI(N)(3,5-dimethylpyrazole)2Cl3]]
[1]; 48 h exposure (compound 8-11)
  IC50: < 100 µM

## tran-[Os^VI(N)(indazole)2Cl3] [Compound 9]
[1]; 48 h exposure (compound 8-11)
  IC50: < 25 µM

## [Os^VI(N)(5-Mesalpa)(OH2)Cl] [Compound 4]
[1]; 24 h exposure (compound 1-7)
  IC50: < 25 µM

## [Os^VI(N)(5-Brsalpa)(OH2)Cl] [Compound 3]
[1]; 24 h exposure (compound 1-7)
  IC50: < 25 µM

## [Os^VI(N)(pyrazole)2Cl3] [Compound 8]
[1]; 48 h exposure (compound 8-11)
  IC50: < 25 µM
[2]; 1 mg/kg i.p., day 14
  Tumor volume/mm^3: 288.12 mm^3
[2]; 1 mg/kg i.p., day 18
  Tumor volume/mm^3: 518.99 mm^3
[2]; 1 mg/kg i.p., day 22
  Tumor volume/mm^3: 801.59 mm^3
[2]; 1 mg/kg i.p., day 26
  Tumor volume/mm^3: 1319.35 mm^3
[2]; 1 mg/kg i.p., day 30
  Tumor volume/mm^3: 1569.69 mm^3
[2]; 1 mg/kg i.p.
  tumor weight: 1.7206 ± 0.4289 g
  inhibition rate (%): 26.73%
[2]; 3 mg/kg i.p., day 14
  Tumor volume/mm^3: 482.89 mm^3
[2]; 3 mg/kg i.p., day 18
  Tumor volume/mm^3: 1043.37 mm^3
[2]; 3 mg/kg i.p., day 22
  Tumor volume/mm^3: 1140.42 mm^3
[2]; 3 mg/kg i.p., day 26
  Tumor volume/mm^3: 1537.35 mm^3
[2]; 3 mg/kg i.p., day 30
  Tumor volume/mm^3: 2262.38 mm^3
[2]; 3 mg/kg i.p.
  tumor weight: 2.0631 ± 1.1693 g
  inhibition rate (%): 12.14%
[2]; 10 mg/kg i.p., day 14
  Tumor volume/mm^3: 534.98 mm^3
[2]; 10 mg/kg i.p., day 18
  Tumor volume/mm^3: 901.64 mm^3
[2]; 10 mg/kg i.p., day 22
  Tumor volume/mm^3: 1422.37 mm^3
[2]; 10 mg/kg i.p., day 26
  Tumor volume/mm^3: 2004.80 mm^3
[2]; 10 mg/kg i.p., day 30
  Tumor volume/mm^3: 2511.59 mm^3
[2]; 10 mg/kg i.p.
  tumor weight: 2.7711 ± 1.0732 g
  inhibition rate (%): −18.01%
HeLa cells
  effectiveness in the MTT assay compared with cisplatin: more effective than cisplatin
HeLa cells; single agent
  IC50: 3.8 µM
HeLa cells; with cisplatin 0.1 μM
  IC50: 4.19 µM
HeLa cells; with cisplatin 1.0 μM
  IC50: 3.38 µM
HeLa cells; with cisplatin 3.0 μM
  IC50: 4.7 µM
HeLa cells; cisplatin 0.1-3.0 μM
  synergistic effect of cisplatin administered with the compound: does not provide any synergistic effect

## [Os^VI(N)(5-Clsalpa)(OH2)Cl] [Compound 2]
[1]; 24 h exposure (compound 1-7)
  IC50: < 25 µM
